In publication PMC3961306, “Comparison of the Cancer Gene Targeting and Biochemical Selectivities of All Targeted Kinase Inhibitors Approved for Clinical Use” (PLoS ONE, 2014):

Experiments:
Experiment in all cases: Kinase profiling in a biochemical assay panel (mobility shift assays and ELISA), %-inhibition at 1 μM; selectivity entropy
[1] = molecular target: panel of more than 300 wild-type and mutant kinases (313 kinase panel) (Homo sapiens, UniProt P12931); settings: kinase SRC; 1 μM
[2] = molecular target: panel of more than 300 wild-type and mutant kinases (313 kinase panel) (Homo sapiens, UniProt P23458)
[3] = molecular target: T1, panel of more than 300 wild-type and mutant kinases (313 kinase panel) (Homo sapiens, UniProt P51955); settings: kinase NEK2; 1 μM
T1 sequence (P51955 1-445): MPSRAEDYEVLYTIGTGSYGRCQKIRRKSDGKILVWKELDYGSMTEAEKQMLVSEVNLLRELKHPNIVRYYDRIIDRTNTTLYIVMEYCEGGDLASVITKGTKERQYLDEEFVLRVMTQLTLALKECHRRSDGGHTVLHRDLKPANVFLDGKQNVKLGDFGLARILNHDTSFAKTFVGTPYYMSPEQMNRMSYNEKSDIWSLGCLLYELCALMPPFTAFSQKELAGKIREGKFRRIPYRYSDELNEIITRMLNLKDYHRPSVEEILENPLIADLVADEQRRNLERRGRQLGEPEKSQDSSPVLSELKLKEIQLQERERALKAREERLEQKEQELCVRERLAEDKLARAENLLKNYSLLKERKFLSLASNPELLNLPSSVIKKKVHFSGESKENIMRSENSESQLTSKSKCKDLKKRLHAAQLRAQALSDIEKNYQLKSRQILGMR

[4] = molecular target: panel of more than 300 wild-type and mutant kinases (313 kinase panel) (Homo sapiens, UniProt Q96GD4)
[5] = molecular target: panel of more than 300 wild-type and mutant kinases (313 kinase panel) (Homo sapiens, UniProt Q9H4B4); settings: kinase PLK3; 1 μM
Chain of panel of more than 300 wild-type and mutant kinases (313 kinase panel) (Homo sapiens, UniProt Q9H4B4) (Q9H4B4 whole entry, stated change not applied): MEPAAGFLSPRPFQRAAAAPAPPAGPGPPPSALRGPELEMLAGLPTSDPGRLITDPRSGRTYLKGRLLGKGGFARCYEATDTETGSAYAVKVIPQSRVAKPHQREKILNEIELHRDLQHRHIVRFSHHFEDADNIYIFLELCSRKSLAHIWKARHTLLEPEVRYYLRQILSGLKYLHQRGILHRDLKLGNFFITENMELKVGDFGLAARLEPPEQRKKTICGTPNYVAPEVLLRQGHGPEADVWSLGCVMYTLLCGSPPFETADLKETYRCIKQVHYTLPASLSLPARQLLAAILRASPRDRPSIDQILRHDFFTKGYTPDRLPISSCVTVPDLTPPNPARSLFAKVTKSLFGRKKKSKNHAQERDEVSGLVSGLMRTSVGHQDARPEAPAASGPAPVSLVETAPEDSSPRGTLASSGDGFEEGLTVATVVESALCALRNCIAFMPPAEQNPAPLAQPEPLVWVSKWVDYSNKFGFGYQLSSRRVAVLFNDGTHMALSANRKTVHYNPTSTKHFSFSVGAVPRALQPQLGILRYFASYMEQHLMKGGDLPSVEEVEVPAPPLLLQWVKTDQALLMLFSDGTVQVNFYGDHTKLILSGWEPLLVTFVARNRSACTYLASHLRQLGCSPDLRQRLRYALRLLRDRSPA

[6] = molecular target: panel of more than 300 wild-type and mutant kinases (313 kinase panel) (Homo sapiens, UniProt P22607, K650E); settings: kinase FGFR3(K650E); compound at 1 μM
Chain of panel of more than 300 wild-type and mutant kinases (313 kinase panel) (Homo sapiens, UniProt P22607, K650E) (P22607 23-806 K650E): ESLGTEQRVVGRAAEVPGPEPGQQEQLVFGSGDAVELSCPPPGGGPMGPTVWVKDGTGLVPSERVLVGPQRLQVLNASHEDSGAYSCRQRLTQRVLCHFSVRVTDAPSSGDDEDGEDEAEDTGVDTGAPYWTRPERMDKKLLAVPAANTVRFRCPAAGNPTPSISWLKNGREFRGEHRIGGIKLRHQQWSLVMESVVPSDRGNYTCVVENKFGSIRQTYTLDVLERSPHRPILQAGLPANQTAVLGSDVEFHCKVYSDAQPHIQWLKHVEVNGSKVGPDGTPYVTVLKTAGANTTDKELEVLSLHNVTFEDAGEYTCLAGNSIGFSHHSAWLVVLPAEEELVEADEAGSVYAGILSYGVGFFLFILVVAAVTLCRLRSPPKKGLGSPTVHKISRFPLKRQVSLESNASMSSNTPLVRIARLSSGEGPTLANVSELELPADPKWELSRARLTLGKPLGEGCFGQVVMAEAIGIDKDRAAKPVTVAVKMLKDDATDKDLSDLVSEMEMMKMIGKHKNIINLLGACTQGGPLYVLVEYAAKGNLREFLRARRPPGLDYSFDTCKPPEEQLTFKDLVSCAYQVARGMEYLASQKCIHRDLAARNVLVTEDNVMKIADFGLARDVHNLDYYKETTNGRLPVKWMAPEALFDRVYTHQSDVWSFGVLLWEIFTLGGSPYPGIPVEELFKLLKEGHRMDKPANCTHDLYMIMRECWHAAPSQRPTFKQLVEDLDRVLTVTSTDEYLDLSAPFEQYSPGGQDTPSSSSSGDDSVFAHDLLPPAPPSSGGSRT

[7] = molecular target: panel of more than 300 wild-type and mutant kinases (313 kinase panel) (Homo sapiens, UniProt P45984); settings: kinase JNK2; compound at 1 μM
Chain of panel of more than 300 wild-type and mutant kinases (313 kinase panel) (Homo sapiens, UniProt P45984) (P45984 whole entry, change not shown): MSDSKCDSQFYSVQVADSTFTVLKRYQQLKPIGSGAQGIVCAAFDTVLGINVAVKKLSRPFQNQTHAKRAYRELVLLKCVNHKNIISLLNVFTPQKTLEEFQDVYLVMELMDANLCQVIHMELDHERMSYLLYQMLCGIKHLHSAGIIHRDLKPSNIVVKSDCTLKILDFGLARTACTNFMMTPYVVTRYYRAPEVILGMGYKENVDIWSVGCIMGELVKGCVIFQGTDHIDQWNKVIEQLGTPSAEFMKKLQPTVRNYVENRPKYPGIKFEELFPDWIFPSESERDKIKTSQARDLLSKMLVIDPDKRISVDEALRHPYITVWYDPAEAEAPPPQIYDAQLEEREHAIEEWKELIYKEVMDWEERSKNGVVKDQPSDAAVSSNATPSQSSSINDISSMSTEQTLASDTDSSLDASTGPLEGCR

[8] = molecular target: T2, panel of more than 300 wild-type and mutant kinases (313 kinase panel) (Homo sapiens, UniProt O14965); settings: 1 μM compound; for %-inhibition, AurA/TPX2: kinase AurA/TPX2; for %-inhibition, AurA: kinase AurA
T2 sequence (O14965 1-403): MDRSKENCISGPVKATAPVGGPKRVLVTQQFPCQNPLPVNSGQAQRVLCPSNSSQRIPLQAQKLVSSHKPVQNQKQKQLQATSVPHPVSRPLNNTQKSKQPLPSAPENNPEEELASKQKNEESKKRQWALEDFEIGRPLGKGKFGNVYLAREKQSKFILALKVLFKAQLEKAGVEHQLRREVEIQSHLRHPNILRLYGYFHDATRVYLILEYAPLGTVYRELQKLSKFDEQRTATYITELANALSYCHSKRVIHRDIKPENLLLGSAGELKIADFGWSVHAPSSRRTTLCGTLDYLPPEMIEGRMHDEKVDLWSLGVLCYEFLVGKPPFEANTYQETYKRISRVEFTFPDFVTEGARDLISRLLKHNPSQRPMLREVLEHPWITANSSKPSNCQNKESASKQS

[9] = molecular target: panel of more than 300 wild-type and mutant kinases (313 kinase panel) (Homo sapiens, UniProt P45983); settings: kinase JNK1; compound at 1 μM
Chain of panel of more than 300 wild-type and mutant kinases (313 kinase panel) (Homo sapiens, UniProt P45983) (P45983 whole entry, change not shown): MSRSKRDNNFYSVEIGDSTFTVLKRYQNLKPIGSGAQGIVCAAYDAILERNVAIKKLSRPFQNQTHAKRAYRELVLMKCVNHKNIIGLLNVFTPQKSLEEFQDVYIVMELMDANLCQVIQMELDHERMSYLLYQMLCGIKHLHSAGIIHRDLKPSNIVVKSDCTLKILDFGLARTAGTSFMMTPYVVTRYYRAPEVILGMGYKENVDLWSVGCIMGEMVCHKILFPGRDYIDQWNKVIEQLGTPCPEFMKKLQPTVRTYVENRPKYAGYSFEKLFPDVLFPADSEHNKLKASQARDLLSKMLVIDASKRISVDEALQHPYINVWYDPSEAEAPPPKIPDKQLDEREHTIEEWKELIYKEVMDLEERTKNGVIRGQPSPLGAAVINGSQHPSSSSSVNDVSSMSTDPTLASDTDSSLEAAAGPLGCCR

[10] = molecular target: T3, panel of more than 300 wild-type and mutant kinases (313 kinase panel) (Homo sapiens, UniProt P53778); settings: kinase p38γ; 1 μM
T3 sequence (P53778 1-367): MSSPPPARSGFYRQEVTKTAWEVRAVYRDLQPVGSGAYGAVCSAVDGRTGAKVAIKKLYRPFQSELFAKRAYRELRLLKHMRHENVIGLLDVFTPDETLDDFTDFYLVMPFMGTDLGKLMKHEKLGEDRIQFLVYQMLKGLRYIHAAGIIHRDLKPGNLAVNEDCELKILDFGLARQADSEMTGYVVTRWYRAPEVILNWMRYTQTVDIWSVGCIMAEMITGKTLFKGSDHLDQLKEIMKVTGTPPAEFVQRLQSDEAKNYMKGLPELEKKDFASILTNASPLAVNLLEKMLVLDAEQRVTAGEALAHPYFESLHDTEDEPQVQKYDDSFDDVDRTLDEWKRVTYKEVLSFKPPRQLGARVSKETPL

[11] = molecular target: panel of more than 300 wild-type and mutant kinases (313 kinase panel) (Homo sapiens, UniProt P17252); settings: kinase PKCα; 1 μM
[12] = molecular target: panel of more than 300 wild-type and mutant kinases (313 kinase panel) (Homo sapiens, UniProt P05771); settings: kinase PKCβ1; 1 μM
[13] = molecular target: panel of more than 300 wild-type and mutant kinases (313 kinase panel) (Homo sapiens, UniProt P10721)
Chain of panel of more than 300 wild-type and mutant kinases (313 kinase panel) (Homo sapiens, UniProt P10721) (P10721 26-976, stated change not applied): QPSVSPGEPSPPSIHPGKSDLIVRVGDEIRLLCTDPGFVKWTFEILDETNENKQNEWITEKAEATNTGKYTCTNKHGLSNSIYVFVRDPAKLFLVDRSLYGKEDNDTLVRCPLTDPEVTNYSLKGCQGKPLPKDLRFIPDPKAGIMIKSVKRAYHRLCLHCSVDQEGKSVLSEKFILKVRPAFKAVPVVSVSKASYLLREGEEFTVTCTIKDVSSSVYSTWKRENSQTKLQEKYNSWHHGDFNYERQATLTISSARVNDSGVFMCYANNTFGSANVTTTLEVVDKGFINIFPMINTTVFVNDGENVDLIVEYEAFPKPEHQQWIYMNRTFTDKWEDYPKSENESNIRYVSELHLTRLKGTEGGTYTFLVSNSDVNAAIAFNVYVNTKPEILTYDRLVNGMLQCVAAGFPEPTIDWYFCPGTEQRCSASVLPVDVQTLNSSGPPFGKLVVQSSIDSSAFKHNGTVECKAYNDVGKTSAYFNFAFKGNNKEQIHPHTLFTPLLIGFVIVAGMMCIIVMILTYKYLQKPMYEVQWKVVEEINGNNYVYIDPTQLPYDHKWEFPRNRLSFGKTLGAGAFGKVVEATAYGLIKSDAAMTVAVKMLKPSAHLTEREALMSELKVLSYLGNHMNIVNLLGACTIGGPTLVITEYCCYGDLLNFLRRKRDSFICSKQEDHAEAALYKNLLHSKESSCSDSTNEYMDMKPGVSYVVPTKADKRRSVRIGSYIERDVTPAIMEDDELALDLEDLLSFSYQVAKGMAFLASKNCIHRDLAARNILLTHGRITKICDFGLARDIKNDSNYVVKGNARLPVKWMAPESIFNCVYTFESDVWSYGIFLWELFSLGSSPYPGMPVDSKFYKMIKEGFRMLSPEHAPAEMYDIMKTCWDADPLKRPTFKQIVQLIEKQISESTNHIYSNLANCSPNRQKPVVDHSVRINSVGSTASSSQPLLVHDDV

[14] = molecular target: panel of more than 300 wild-type and mutant kinases (313 kinase panel) (Homo sapiens, UniProt P07949, Y791F)
Chain of panel of more than 300 wild-type and mutant kinases (313 kinase panel) (Homo sapiens, UniProt P07949, Y791F) (P07949 29-1114 Y791F): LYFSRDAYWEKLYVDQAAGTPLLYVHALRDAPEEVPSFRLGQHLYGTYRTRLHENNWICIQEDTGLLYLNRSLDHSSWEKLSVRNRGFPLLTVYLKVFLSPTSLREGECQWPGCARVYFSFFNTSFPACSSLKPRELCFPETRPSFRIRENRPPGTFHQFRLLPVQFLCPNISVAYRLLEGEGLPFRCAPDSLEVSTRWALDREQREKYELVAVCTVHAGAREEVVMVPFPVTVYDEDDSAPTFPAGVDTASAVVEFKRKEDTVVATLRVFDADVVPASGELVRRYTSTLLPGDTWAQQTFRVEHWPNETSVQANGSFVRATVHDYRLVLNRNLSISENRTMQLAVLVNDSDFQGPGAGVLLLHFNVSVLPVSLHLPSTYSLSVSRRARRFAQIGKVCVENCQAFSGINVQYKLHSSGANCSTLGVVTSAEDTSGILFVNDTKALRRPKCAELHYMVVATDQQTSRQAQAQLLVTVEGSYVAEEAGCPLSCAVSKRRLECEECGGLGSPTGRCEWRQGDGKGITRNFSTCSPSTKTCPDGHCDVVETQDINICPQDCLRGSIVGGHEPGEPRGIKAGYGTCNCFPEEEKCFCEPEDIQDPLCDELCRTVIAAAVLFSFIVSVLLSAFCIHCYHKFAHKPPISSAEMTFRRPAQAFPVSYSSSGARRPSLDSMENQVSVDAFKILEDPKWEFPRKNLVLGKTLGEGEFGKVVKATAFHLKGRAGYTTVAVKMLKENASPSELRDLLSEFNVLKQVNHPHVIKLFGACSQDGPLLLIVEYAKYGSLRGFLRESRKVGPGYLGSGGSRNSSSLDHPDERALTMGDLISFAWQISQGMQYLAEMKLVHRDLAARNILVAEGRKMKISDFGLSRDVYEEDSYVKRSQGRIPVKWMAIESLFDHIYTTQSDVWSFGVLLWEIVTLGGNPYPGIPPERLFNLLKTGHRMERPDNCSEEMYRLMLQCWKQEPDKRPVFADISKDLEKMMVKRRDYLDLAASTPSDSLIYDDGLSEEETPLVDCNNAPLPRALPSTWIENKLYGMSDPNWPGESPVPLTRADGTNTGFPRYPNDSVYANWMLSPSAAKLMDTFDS

| SMILES | %-inhibition of SRC [1] [%] | %-inhibition of JAK1 ([2]; kinase JAK1, compound at 1 μM) [%] | %-inhibition of NEK2 [3] [%] | %-inhibition, AurB ([4]; kinase AurB, 1 μM compound) [%] | %-inhibition of PLK3 [5] [%] | %-inhibition of FGFR3(K650E) [6] [%] | %-inhibition of JNK2 [7] [%] | %-inhibition, AurA/TPX2 [8] [%] | %-inhibition, AurA [8] [%] | %-inhibition of JNK1 [9] [%] | %-inhibition of p38γ [10] [%] | %-inhibition of PKCα [11] [%] | %-inhibition of PKCβ1 [12] [%] | %-inhibition of KIT ([13]; kinase KIT, compound at 1 μM) [%] | %-inhibition of RET(Y791F) ([14]; kinase RET(Y791F), 1 μM) [%] | %-inhibition, AurB ([4]; 1 µM) [%] | %-inhibition of KIT ([13]; 1 µM) [%] | %-inhibition of RET(Y791F) ([14]; 1 µM) [%] | %-inhibition of JAK1 ([2]; 1 µM) [%] |
| --- | --- | --- | --- | --- | --- | --- | --- | --- | --- | --- | --- | --- | --- | --- | --- | --- | --- | --- | --- |
| CO[C@H]1C[C@@H]2CC[C@@H](C)[C@@](O)(O2)C(=O)C(=O)N2CCCC[C@H]2C(=O)O[C@H]([C@H](C)C[C@@H]2CC[C@@H](OCCO)[C@H](OC)C2)CC(=O)[C@H](C)/C=C(\C)[C@@H](O)[C@@H](OC)C(=O)[C@H](C)C[C@H](C)/C=C/C=C/C=C/1C [everolimus] | 2.64 | -7 | -7 | -1.39 | -1.66 | -4.55 | -5.37 | -4.51 | 3.74 | -5 | -7 | -11 | 29 | -10 | -3.57 | – | – | – | – |
| CS(=O)(=O)CCNCc1ccc(-c2ccc3ncnc(Nc4ccc(OCc5cccc(F)c5)c(Cl)c4)c3c2)o1 [lapatinib] | 6 | -3 | -3.7 | – | 6 | 0.415 | -8 | -10 | 5.59 | -6 | -1.19 | 1 | -6 | – | – | 9 | 9 | -5 | – |
| Cc1cn(-c2cc(NC(=O)c3ccc(C)c(Nc4nccc(-c5cccnc5)n4)c3)cc(C(F)(F)F)c2)cn1 [nilotinib] | 23 | – | -19 | -11 | 26 | -37 | 9 | -9 | -5.43 | 36 | -15 | 6.55 | 3.41 | – | – | – | 96 | 16 | 13 |
| CNC(=O)c1cc(Oc2ccc(NC(=O)Nc3ccc(Cl)c(C(F)(F)F)c3)c(F)c2)ccn1 [regorafenib] | 44 | 31 | -6.65 | 20 | 2.24 | 99 | 57 | -4 | 7 | -1.47 | 16 | -11 | -7 | 100 | – | – | – | 102 | – |
| CO[C@H]1C[C@@H]2CC[C@@H](C)[C@@](O)(O2)C(=O)C(=O)N2CCCC[C@H]2C(=O)O[C@H]([C@H](C)C[C@@H]2CC[C@@H](OC(=O)C(C)(CO)CO)[C@H](OC)C2)CC(=O)[C@H](C)/C=C(\C)[C@@H](O)[C@@H](OC)C(=O)[C@H](C)C[C@H](C)/C=C/C=C/C=C/1C [temsirolimus] | 0.915 | -7 | -5 | -4 | -4.39 | -2.55 | -4.61 | -3.42 | -12 | -3.71 | -5.48 | -6 | -2 | -8 | -0.679 | – | – | – | – |
| CC(=O)Nc1cccc(-n2c(=O)n(C3CC3)c(=O)c3c(Nc4ccc(I)cc4F)n(C)c(=O)c(C)c32)c1 [trametinib] | -5.4 | -1.83 | 2.76 | -4 | -6.59 | -1.07 | -4.73 | -5.37 | -2 | -4.68 | 0.684 | -5 | -3.47 | -0.648 | -1.71 | – | – | – | – |
| CCCS(=O)(=O)Nc1ccc(F)c(C(=O)c2c[nH]c3ncc(-c4ccc(Cl)cc4)cc23)c1F [vemurafenib] | 52 | 46 | -1 | 6 | -2.83 | 6.55 | -0.0632 | -2.59 | 23 | 1.47 | -0.299 | -3.61 | -3.81 | 58 | 30 | – | – | – | – |
